Converted amounts (≈) assume the structure as drawn. Square brackets hold non-standard residues; d marks the D form. Peptide text beside a SMILES is read from it. * marks the point of attachment. X2 = OC[C@H](Cc1c[nH]c2ccccc12)N*; Phe(ol) = N[C@H](CO)Cc1ccccc1; X1 = COC[C@H](Cc1ccccc1)N*; Aib = CC(C)(N)C(=O)O
How the values were obtained:
[1] = Bilayer membrane permeabilization assessed as lipid to peptide ratio allowing 50% leakage of entrapped carboxyfluorescein from egg phosphatidylcholine-cholesterol liposomes at 0.21 uM at 20 mins by spectrofluorimetry; format: physicochemical
[2] = Bilayer membrane permeabilization assessed as lipid to peptide ratio allowing 50% leakage of entrapped carboxyfluorescein from egg phosphatidylcholine-cholesterol liposomes at 0.36 uM at 20 mins by spectrofluorimetry; format: physicochemical
[3] = Bilayer membrane permeabilization assessed as lipid to peptide ratio allowing 50% leakage of entrapped carboxyfluorescein from egg phosphatidylcholine-cholesterol liposomes at 0.45 uM at 20 mins by spectrofluorimetry; format: physicochemical
[4] = Bilayer membrane permeabilization assessed as lipid to peptide ratio allowing 50% leakage of entrapped carboxyfluorescein from egg phosphatidylcholine-cholesterol liposomes at 0.98 uM at 20 mins by spectrofluorimetry; format: physicochemical
Acholeplasma laidlawii = assay: Antimicrobial activity against Acholeplasma laidlawii PG-8A after 2 hrs; format: functional
[5] = test system: Mycoplasma mycoides subsp. mycoides SC; assay: Antimicrobial activity against Mycoplasma mycoides subsp. mycoides SC KH3J after 2 hrs; format: functional
[6] = Bilayer membrane permeabilization assessed as lipid to peptide ratio allowing 50% leakage of entrapped carboxyfluorescein from egg phosphatidylcholine-cholesterol liposomes at 0.13 uM at 20 mins by spectrofluorimetry; format: physicochemical
[7] = test system: Mycoplasmoides gallisepticum; assay: Antimicrobial activity against Mycoplasma gallisepticum S6 after 2 hrs; format: functional
Spiroplasma floricola = assay: Antimicrobial activity against Spiroplasma floricola BNR1 after 2 hrs; format: functional
Spiroplasma citri = assay: Antimicrobial activity against Spiroplasma citri R8A2 after 2 hrs; format: functional; conditions: R8A2, 2 h
Spiroplasma apis = assay: Antimicrobial activity against Spiroplasma apis B31 after 2 hrs; format: functional
[8] = Bilayer membrane permeabilization assessed as lipid to peptide ratio allowing 50% leakage of entrapped carboxyfluorescein from egg phosphatidylcholine-cholesterol liposomes at 0.18 uM at 20 mins by spectrofluorimetry; format: physicochemical

SMILES: CC[C@@](C)(NC(=O)C(C)(C)NC(=O)[C@@H](NC(=O)[C@@H]1CCCN1C(=O)C(C)(C)NC(=O)[C@H](CC(C)C)NC(=O)CNC(=O)C(C)(C)NC(=O)[C@@H](NC(=O)C(C)(C)NC(=O)[C@H](CCC(N)=O)NC(=O)[C@H](C)NC(=O)C(C)(C)NC(=O)[C@H](C)NC(=O)C(C)(C)NC(=O)[C@H](C)NC(=O)C(C)(C)NC(C)=O)C(C)C)C(C)C)C(=O)N[C@@H](CCC(N)=O)C(=O)N[C@@H](CCC(N)=O)C(=O)N[C@@H](CO)Cc1ccccc1
- Ratio [1]: 2860

SMILES: CC(=O)NC(C)(C)C(=O)N[C@@H](C)C(=O)NC(C)(C)C(=O)N[C@@H](C)C(=O)NC(C)(C)C(=O)N[C@@H](C)C(=O)N[C@@H](CCC(N)=O)C(=O)NC(C)(C)C(=O)N[C@H](C(=O)NC(C)(C)C(=O)NCC(=O)N[C@@H](CC(C)C)C(=O)NC(C)(C)C(=O)N1CCC[C@H]1C(=O)N[C@H](C(=O)NC(C)(C)C(=O)NC(C)(C)C(=O)N[C@@H](CCC(N)=O)C(=O)N[C@@H](CCC(N)=O)C(=O)N[C@H](CO)Cc1ccccc1)C(C)C)C(C)C (Ac-[Aib]A[Aib]A[Aib]AQ[Aib]V[Aib]GL[Aib]PV[Aib][Aib]QQ[Phe(ol)])
- Ratio [2]: 1667

SMILES: CC[C@@](C)(NC(=O)C(C)(C)NC(=O)[C@@H](NC(=O)[C@@H]1CCCN1C(=O)C(C)(C)NC(=O)[C@H](CC(C)C)NC(=O)CNC(=O)C(C)(C)NC(=O)[C@@H](NC(=O)C(C)(C)NC(=O)[C@H](CCC(N)=O)NC(=O)[C@H](C)NC(=O)C(C)(C)NC(=O)[C@H](C)NC(=O)C(C)(C)NC(=O)[C@H](C)NC(=O)C(C)(C)NC(C)=O)C(C)C)C(C)C)C(=O)N[C@@H](CCC(=O)O)C(=O)N[C@@H](CCC(N)=O)C(=O)N[C@H](COC)Cc1ccccc1
- Ratio [2]: 2500

SMILES: COC[C@H](Cc1ccccc1)NC(=O)[C@H](CCC(N)=O)NC(=O)[C@H](CCC(=O)O)NC(=O)C(C)(C)NC(=O)C(C)(C)NC(=O)[C@@H](NC(=O)[C@@H]1CCCN1C(=O)C(C)(C)NC(=O)[C@H](CC(C)C)NC(=O)CNC(=O)C(C)(C)NC(=O)[C@@H](NC(=O)C(C)(C)NC(=O)[C@H](CCC(N)=O)NC(=O)[C@H](C)NC(=O)C(C)(C)NC(=O)[C@H](C)NC(=O)C(C)(C)NC(=O)[C@H](C)NC(=O)C(C)(C)NC(C)=O)C(C)C)C(C)C (Ac-[Aib]A[Aib]A[Aib]AQ[Aib]V[Aib]GL[Aib]PV[Aib][Aib]EQ-X1)
- Ratio [3]: 1335

SMILES: CC(=O)NC(C)(C)C(=O)N[C@@H](C)C(=O)NC(C)(C)C(=O)N[C@@H](C)C(=O)NC(C)(C)C(=O)NC(C)(C)C(=O)N[C@@H](CCC(N)=O)C(=O)NC(C)(C)C(=O)N[C@H](C(=O)NC(C)(C)C(=O)NCC(=O)N[C@@H](CC(C)C)C(=O)NC(C)(C)C(=O)N1CCC[C@H]1C(=O)N[C@H](C(=O)NC(C)(C)C(=O)NC(C)(C)C(=O)N[C@@H](CCC(N)=O)C(=O)N[C@@H](CCC(N)=O)C(=O)N[C@H](CO)Cc1ccccc1)C(C)C)C(C)C (Ac-[Aib]A[Aib]A[Aib][Aib]Q[Aib]V[Aib]GL[Aib]PV[Aib][Aib]QQ[Phe(ol)])
- Ratio [4]: 1820

SMILES: CC[C@@](C)(NC(=O)C(C)(C)NC(=O)[C@@H](NC(=O)[C@@H]1CCCN1C(=O)C(C)(C)NC(=O)[C@H](CC(C)C)NC(=O)CNC(=O)C(C)(C)NC(=O)[C@@H](NC(=O)C(C)(C)NC(=O)[C@H](CCC(N)=O)NC(=O)C(C)(C)NC(=O)C(C)(C)NC(=O)[C@H](C)NC(=O)C(C)(C)NC(=O)[C@H](C)NC(=O)C(C)(C)NC(C)=O)C(C)C)C(C)C)C(=O)N[C@@H](CCC(N)=O)C(=O)N[C@@H](CCC(N)=O)C(=O)N[C@H](CO)Cc1ccccc1
- MLC (Acholeplasma laidlawii): 3.12 µM (≈ 6.13 µg/mL)
- MIC (Acholeplasma laidlawii; Acholeplasma laidlawii, PG-8A, 2 h): 0.78 µM (≈ 1.53 µg/mL)
- MIC [5]: 6.25 µM (≈ 12.3 µg/mL)
- Ratio [6]: 4545
- MLC [7]: 3.12 µM (≈ 6.13 µg/mL)
- MIC ([7]; Mycoplasmoides gallisepticum, S6, 2 h): 6.25 µM (≈ 12.3 µg/mL)
- MLC (Spiroplasma floricola): 3.12 µM (≈ 6.13 µg/mL)
- MIC (Spiroplasma floricola; Spiroplasma floricola, BNR1, 2 h): 6.25 µM (≈ 12.3 µg/mL)
- MIC (Spiroplasma citri): 3.12 µM (≈ 6.13 µg/mL)
- MLC (Spiroplasma apis): 3.12 µM (≈ 6.13 µg/mL)
- MIC (Spiroplasma apis; Spiroplasma apis, B31, 2 h): 6.25 µM (≈ 12.3 µg/mL)

SMILES: CC[C@H](C)[C@H](NC(=O)C(C)(C)NC(=O)[C@@H](NC(=O)[C@@H]1CCCN1C(=O)C(C)(C)NC(=O)[C@H](CC(C)C)NC(=O)[C@H](CO)NC(=O)C(C)(C)NC(=O)C(C)(C)NC(=O)C(C)(C)NC(=O)[C@H](CCC(N)=O)NC(=O)C(C)(C)NC(=O)C(C)(C)NC(=O)[C@H](C)NC(=O)[C@H](C)NC(=O)C(C)(C)NC(C)=O)C(C)C)C(=O)N[C@@H](CCC(N)=O)C(=O)N[C@@H](CCC(N)=O)C(=O)N[C@H](CO)Cc1c[nH]c2ccccc12 (Ac-[Aib]AA[Aib][Aib]Q[Aib][Aib][Aib]SL[Aib]PV[Aib]IQQ-X2)
- Ratio [8]: 2220
